pEC50, pKi: −log10 of the molar value.

For data set [1], the target named is T1, Adenosine receptor A2a (Rattus norvegicus, UniProt P30543).
Description: Functional activity against adenosine A2a receptor from rat aorta.
For data set [2], the target named is T1, Adenosine receptor A2a. This is another data set of the same source.
Data set [3] in a line: Hydrophobicity index (k'') (RP-HPLC pH 7.5). Type of data set: ADME.
In data set [4] the target is T2, Adenosine receptor A1 (Rattus norvegicus, UniProt P25099).
T2 sequence (P25099 whole entry): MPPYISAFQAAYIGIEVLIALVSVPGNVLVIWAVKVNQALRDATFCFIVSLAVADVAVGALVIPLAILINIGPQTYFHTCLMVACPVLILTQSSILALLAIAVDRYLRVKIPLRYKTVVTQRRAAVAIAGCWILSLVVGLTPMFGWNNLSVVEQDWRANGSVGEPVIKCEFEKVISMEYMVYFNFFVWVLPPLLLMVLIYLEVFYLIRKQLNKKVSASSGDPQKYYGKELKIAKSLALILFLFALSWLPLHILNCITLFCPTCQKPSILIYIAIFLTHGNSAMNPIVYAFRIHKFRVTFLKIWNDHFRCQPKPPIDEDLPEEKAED
Description: Binding affinity against adenosine A1 receptor from rat brain using [3H]CHA as a radioligand.

Data set [5] deals with T2, Adenosine receptor A1. In words: Functional activity against adenosine A1 receptor from rat atria.

T1 sequence (P30543 whole entry): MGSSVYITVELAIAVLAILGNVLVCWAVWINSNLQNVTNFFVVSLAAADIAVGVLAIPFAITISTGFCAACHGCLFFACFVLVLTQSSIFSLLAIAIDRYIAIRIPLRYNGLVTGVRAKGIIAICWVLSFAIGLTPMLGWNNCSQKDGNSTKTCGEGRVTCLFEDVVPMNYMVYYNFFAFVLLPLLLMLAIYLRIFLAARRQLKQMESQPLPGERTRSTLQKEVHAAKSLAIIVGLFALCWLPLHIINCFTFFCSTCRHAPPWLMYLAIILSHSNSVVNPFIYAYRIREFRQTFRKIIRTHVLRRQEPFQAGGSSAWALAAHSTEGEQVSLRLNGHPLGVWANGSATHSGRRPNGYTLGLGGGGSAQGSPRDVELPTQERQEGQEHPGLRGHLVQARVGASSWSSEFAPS

As for `C#Cc1nc(N)c2ncn([C@@H]3O[C@H](C(=O)NCC)[C@@H](O)[C@H]3O)c2n1`, the pEC50 (as a rule, the negative decadic logarithm of the EC50, by convention in mol/L) in data set [1] was 6.36. Moreover, in data set [2], the pKi – broadly, the Ki on a negative log10 scale, so that one unit is a factor of ten – is 7.24. Besides, the “k'” value in data set [3] came to 0.25.

As to `CCNC(=O)[C@H]1O[C@@H](n2cnc3c(N)nc(C#CCCCc4ccccc4)nc32)[C@H](O)[C@@H]1O`, the values for the negative-log Ki (pKi) in data set [4] and in data set [2] were 6.68 and 8.92, respectively. In data set [5], this molecule gave a pEC50 of 5.19. Also, the “k'” value in data set [3] came out at 5.82.

Consider `CCNC(=O)[C@H]1O[C@@H](n2cnc3c(N)nc(C#Cc4ccccc4)nc32)[C@H](O)[C@@H]1O`, for which the values for the pKi in data set [4] and in data set [2] were 6.16 and 6.92, respectively. For the same molecule, the pEC50 was < 5.00 in data set [5] and 5.82 in data set [1]. In addition, in data set [3], the “k'” value turned out to be 2.04.

As for `OC[C@H]1O[C@@H](n2cnc3c(NC4CCCC4)nc(Cl)nc32)[C@H](O)[C@@H]1O`, the “k'” value in data set [3] turned out to be 2.76.

On to `CCCCC#Cc1nc(N)c2ncn([C@@H]3O[C@H](C(=O)NCC)[C@@H](O)[C@H]3O)c2n1`, for which the pEC50 in data set [1] was 6.22. Moreover, the “k'” value in data set [3] is reported as 2.57.

`CCNC(=O)[C@H]1OC(n2cnc3c(N)nc(C#Cc4ccncc4)nc32)[C@H](O)[C@@H]1O` (stereo not given in full): the pKi in data set [4] was 6.37; in data set [2], 7.06. Also, the pEC50 in data set [5] and in data set [1] was < 5.00 in each case. Also, the “k'” value in data set [3] was determined as 0.57.

With `CCNC(=O)[C@H]1OC(n2cnc3c(N)nc(C#Cc4ccc(C=O)cc4)nc32)[C@H](O)[C@@H]1O` (stereo not given in full), the negative-log Ki (pKi) was 6.00 in data set [4] and 8.20 in data set [2]. In addition, the values for the negative logarithm of the EC50 (pEC50) in data set [5] and in data set [1] were < 5.00 and 6.96, respectively. In addition, in data set [3], the “k'” value was determined as 1.02.

Regarding `CCNC(=O)[C@H]1OC(n2cnc3c(N)nc(C#CCN4CCN(C)CC4)nc32)[C@H](O)[C@@H]1O` (stereo not given in full), the pKi in data set [4] is 7.44; in data set [2], 7.72. The values for the negative logarithm of the EC50 (pEC50) in data set [5] and in data set [1] were 6.06 and 6.39, respectively. Also, in data set [3], the “k'” value was determined as 0.42.

On to `CCNC(=O)[C@H]1OC(n2cnc3c(N)nc(C#Cc4cccnc4)nc32)[C@H](O)[C@@H]1O` (stereo not given in full), for which the negative logarithm of the Ki (pKi) was 6.86 in data set [4] and 6.63 in data set [2]. For the same molecule, the pEC50 in data set [5] is 6.38; in data set [1], 6.31. For the same molecule, the “k'” value in data set [3] is 0.51.

For the molecule `CCNC(=O)[C@H]1OC(n2cnc3c(N)nc(C#CCN4CCCCC4)nc32)[C@H](O)[C@@H]1O` (stereo not given in full), the pKi is 7.56 in data set [4] and 8.37 in data set [2]. Moreover, the pEC50 is 6.49 in data set [5] and 6.52 in data set [1]. In addition, the “k'” value in data set [3] stood at 1.11.

Turning to `CCNC(=O)[C@H]1OC(n2cnc3c(N)nc(C#Cc4ccc(N)cc4)nc32)[C@H](O)[C@@H]1O` (stereo not given in full), the negative logarithm of the Ki (pKi) in data set [4] is 6.22; in data set [2] it was 6.95. The negative logarithm of the EC50 (pEC50) in data set [5] is < 5.00; in data set [1], 5.39. Moreover, the “k'” value in data set [3] was 0.46.

As to `CCNC(=O)[C@H]1OC(n2cnc3c(N)nc(C#CCN4CCSCC4)nc32)[C@H](O)[C@@H]1O` (stereo not given in full), the pKi in data set [4] was 7.28; in data set [2], 8.23. The results for the pEC50 in data set [5] and in data set [1] were 6.51 and 6.65, respectively. In data set [3], the “k'” value stood at 0.66.

For `CCNC(=O)[C@H]1OC(n2cnc3c(N)nc(C#Cc4ccc([N+](=O)[O-])cc4)nc32)[C@H](O)[C@@H]1O` (stereo not given in full), the figures for the pKi in data set [4] and in data set [2] were 6.05 and 7.67, respectively. The negative-log EC50 (pEC50) is < 5.00 in data set [5] and 5.92 in data set [1]. Besides, in data set [3], the “k'” value amounted to 1.82.

For `CCNC(=O)[C@H]1OC(n2cnc3c(N)nc(C#CCN4CCOCC4)nc32)[C@H](O)[C@@H]1O` (stereo not given in full), the negative-log Ki (pKi) in data set [4] is 7.04; in data set [2], 7.56. Also, the pEC50 in data set [5] is 6.45; in data set [1] it was 6.27. In addition, the “k'” value in data set [3] was determined as 0.28.

Turning to `CCNC(=O)[C@H]1OC(n2cnc3c(N)nc(C#Cc4ccc(C(F)(F)F)cc4)nc32)[C@H](O)[C@@H]1O` (stereo not given in full), the negative logarithm of the Ki (pKi) is 5.61 in data set [4] and 6.50 in data set [2]. Besides, in data set [1], the pEC50 is 5.52. In data set [3], the “k'” value stood at 5.79.

Regarding `CCNC(=O)[C@H]1OC(n2cnc3c(N)nc(C#CCc4ccccc4)nc32)[C@H](O)[C@@H]1O` (stereo not given in full), the pKi was 7.56 in data set [4] and 8.80 in data set [2]. Besides, the pEC50 is 6.79 in data set [5] and 6.39 in data set [1]. Moreover, the “k'” value in data set [3] turned out to be 2.4.

`CCNC(=O)[C@H]1OC(n2cnc3c(N)nc(C#Cc4cccc(C=O)c4)nc32)[C@H](O)[C@@H]1O` (stereo not given in full): the pKi in data set [4] was 5.84; in data set [2], 6.75. The negative-log EC50 (pEC50) in data set [5] was < 5.00; in data set [1], 5.45. For the same molecule, the “k'” value in data set [3] came to 1.06.

As to `CCNC(=O)[C@H]1OC(n2cnc3c(N)nc(C#Cc4ccco4)nc32)[C@H](O)[C@@H]1O` (stereo not given in full), the negative-log Ki (pKi) in data set [4] was 6.51; in data set [2] it was 6.89. The negative-log EC50 (pEC50) in data set [5] and in data set [1] was < 5.00 throughout. Further, the “k'” value in data set [3] is listed as 1.06.

As for `CCNC(=O)[C@H]1OC(n2cnc3c(N)nc(C#Cc4ccc(CCC(=O)O)cc4)nc32)[C@H](O)[C@@H]1O` (stereo not given in full), the negative-log Ki (pKi) in data set [4] and in data set [2] was < 6.00 each time. Also, the pEC50 was < 5.00 in data set [5] and 11.10 in data set [1].

On to `CCNC(=O)[C@H]1OC(n2cnc3c(N)nc(C#Cc4ccc(CC#N)cc4)nc32)[C@H](O)[C@@H]1O` (stereo not given in full), for which the results for the negative-log Ki (pKi) in data set [4] and in data set [2] were 5.80 and 7.26, respectively. Moreover, the pEC50 in data set [5] was < 5.00; in data set [1] it was 5.19. Also, in data set [3], the “k'” value came out at 0.76.

As for `CCNC(=O)[C@H]1OC(n2cnc3c(N)nc(C#Cc4ccc(CCC(=O)OC(C)(C)C)cc4)nc32)[C@H](O)[C@@H]1O` (stereo not given in full), the pKi in data set [4] was < 5.00; in data set [2], 6.13. The negative logarithm of the EC50 (pEC50) was < 5.00 in data set [5] and 5.87 in data set [1]. Besides, the “k'” value in data set [3] amounted to 2.28.

As for `CCNC(=O)[C@H]1OC(n2cnc3c(N)nc(C#Cc4ccc(C)cc4)nc32)[C@H](O)[C@@H]1O` (stereo not given in full), the pKi in data set [4] is 6.30; in data set [2] it was 7.44. The negative-log EC50 (pEC50) is 5.07 in data set [5] and 5.48 in data set [1]. Further, in data set [3], the “k'” value was 3.59.

On to `CCNC(=O)[C@H]1OC(n2cnc3c(N)nc(C#CCCc4ccccc4)nc32)[C@H](O)[C@@H]1O` (stereo not given in full), for which the pKi in data set [4] is 6.35; in data set [2], 8.15. The pEC50 in data set [5] is < 5.00; in data set [1] it was 6.68. In data set [3], the “k'” value was 3.16.

As to `CCNC(=O)[C@H]1OC(n2cnc3c(N)nc(C#Cc4ccc(F)cc4)nc32)[C@H](O)[C@@H]1O` (stereo not given in full), the values for the negative logarithm of the Ki (pKi) in data set [4] and in data set [2] were 5.48 and 7.09, respectively. Moreover, the pEC50 in data set [5] and in data set [1] was < 5.00 in each case. The “k'” value in data set [3] amounted to 2.33.

In the case of `CCNC(=O)[C@H]1OC(n2cnc3c(N)nc(C#Cc4ccc(C(N)=O)cc4)nc32)[C@H](O)[C@@H]1O` (stereo not given in full), the pKi in data set [4] is 5.13; in data set [2], 5.82. For the same molecule, the results for the pEC50 in data set [5] and in data set [1] were < 5.00 and 5.19, respectively. The “k'” value in data set [3] was determined as 0.32.

Consider `CCNC(=O)[C@H]1OC(n2cnc3c(N)nc(C#Cc4ccccn4)nc32)[C@H](O)[C@@H]1O` (stereo not given in full), for which the pKi in data set [4] was 6.94; in data set [2] it was 7.05. The negative-log EC50 (pEC50) in data set [5] is 6.08; in data set [1], 6.61. The “k'” value in data set [3] was 0.49.

As for `CCNC(=O)[C@H]1O[C@@H](n2cnc3c(N)nc(NCCc4ccc(CCC(=O)O)cc4)nc32)[C@H](O)[C@@H]1O` [CGS-21680], the “k'” value in data set [3] was found to be 0.24.

With `CCNC(=O)[C@H]1O[C@@H](n2cnc3c(N)ncnc32)[C@H](O)[C@@H]1O` [NECA], the “k'” value in data set [3] is 0.19.

For the origin of these results see ChEMBL document CHEMBL1128307, “2-Aralkynyl and 2-heteroalkynyl derivatives of adenosine-5'-N-ethyluronamide as selective A2a adenosine receptor agonists” (J Med Chem, 1995).
